Measured values as given in PubChem BioAssay AID2060501 (Molecular Pharmacology Branch, DTP, NCI, 2025).

Tested on: 282377-053-R-J1-PDC complex spheroids, viability
Test: Anticancer human tumor 282377-053-R-J1-PDC patient-derived colon adenocarcinoma cell line growth inhibition [GQUAD]
Settings: for IC50: curve of first compound; for viability, T/C: stronger effect = lower value
Text: DNA G-quadruplex Stabilizer Agents in Combinations in Complex Spheroids
A high-throughput screen of multi-cell type tumor spheroids was designed to identify active combinations of DNA G-quadruplex stabilizer agents and targeted small molecules. Complex spheroids include a stromal component modeled by human endothelial cells (HUVEC) and fibroblasts modeled by human mesenchymal stem cells (MSCs). The concentration ranges selected for each drug and investigational agent were based upon clinically achievable concentrations if the clinical Cmax of the agent was known.
Compounds. The drugs and investigational agents: pidnarulex (CX-5461; NSC782164), APTO-253 (NSC789042), BRACO-19 (NSC847499), peposertib (NSC802822), ceralasertib (NSC780249), elimusertib (NSC800525), camonsertib (NSC841442), AZD-1390 (NSC803789), olaparib (NSC753686), talazoparib (NSC767125), ART-558 (NSC835418), sotorasib (NSC818433), MRTX-1133 (NSC836407), SN-38 (NSC673596), topotecan (NSC609699), etoposide (NSC141540), doxorubicin (NSC123127), gemcitabine (NSC613327), 5-fluorouracil (NSC19893), paclitaxel (NSC125973), vemurafenib (NSC761431), panobinostat (NSC761190), R-306465 (JNJ-16241199; NSC773264), adavosertib (NSC754352), TP-3654 (NSC805149), carboplatin (NSC241240), KSQ-4279 (NSC840948), and staurosporine (NSC755774) were obtained from the National Cancer Institute (NCI) Developmental Therapeutics Program Chemical Repository (34). The FDA-approved anticancer drug set is available from the NCI Developmental Therapeutics Program. […] The stock solutions were prepared in dimethyl sulfoxide (DMSO, Sigma-Aldrich, St. Louis, MO, cat. D2650) at 800-fold the tested concentration and stored at -70 degrees C prior to their use. All drugs and investigational agents were tested over a range starting from a high concentration at or near the clinical Cmax and decreasing in half-log increments. If the clinical Cmax for an agent had not been determined, the highest concentration tested was 10 microM.
2.3 Cell Culture. All cells were maintained in an incubator at 37 degrees C and 5% CO2 with 95% humidity. The PDC lines were cultured according to standard operating procedures established by the NCI PDMR. All PDCs were thawed and cultured in Matrigel-coated flasks prepared with a working solution of 1X Ham's F-12 nutrient mix, without supplementation (Invitrogen, cat. 11765054), 100 U/mL penicillin-streptomycin (Invitrogen, cat. 15140122), and 2.5% Matrigel (Corning Inc., cat. 354248) for the first three passages. The 857933-349-R-J2-PDC line was cultured in 6C/Colon 1B media, which includes advanced DMEM/F-12 (Thermo Fisher Scientific, cat. 12634028), 10 mM HEPES (Thermo Fisher Scientific, cat. 15630080), 1X GlutaMAX supplement (Thermo Fisher Scientific, cat. 35050061), 0.1 mg/mL primocin (InvivoGen, cat. ant-pm-2), 10% defined fetal bovine serum, heat inactivated (HyClone Laboratories Inc., cat. SH30070.03HI), 50% L-WRN conditioned media (ATCC, cat. CRL-3276), 1.25 mM N-Acetyl-L-cysteine (Sigma-Aldrich, cat. A9165), 10 mM nicotinamide (Sigma-Aldrich, cat. N0636), 1X B-27 supplement (Thermo Fisher Scientific, cat. 17504044), 1X N-2 supplement (Thermo Fisher Scientific, cat. 17502048), 10 microM Y-27632 dihydrochloride (Tocris Bioscience, cat. 1254), and 50 ng/mL human EGF recombinant protein (Thermo Fisher Scientific, cat. PHG0311). The 485176-168-R4-J1-PDC line was cultured in Panc media, which includes all 6C/Colon 1B media components plus 100 ng/mL human FGF-10 (Thermo Fisher Scientific, cat. 100-26), 500 nM SB-431542 (Selleckchem, cat. S1067), and gastrin (Tocris, cat. 3006).
[…]

[1] = second compound 0.0316 µM, first compound 0.0316 µM
[2] = second compound 0.0316 µM, first compound 0.316 µM
[3] = second compound 0.1 µM, first compound 0.0316 µM
[4] = second compound 0.1 µM, first compound 0.316 µM
[5] = second compound 0.316 µM, first compound 0.0316 µM
[6] = second compound 0.316 µM, first compound 0.316 µM
[7] = second compound 1 µM, first compound 0.0316 µM
[8] = second compound 1 µM, first compound 0.316 µM
[9] = second compound 3.16 µM, first compound 0.0316 µM
[10] = second compound 3.16 µM, first compound 0.316 µM
[11] = second compound 10 µM, first compound 0.0316 µM
[12] = second compound 10 µM, first compound 0.316 µM
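Further: spheroids exposed to compounds for 7 days before readout.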
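Wherever viability, T/C is given: percent of vehicle DMSO control viability with 100% = untreated-like growth.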

## CC[C@@]1(O)C(=O)OCc2c1cc1n(c2=O)Cc2cc3c(CN(C)C)c(O)ccc3nc2-1 + CN(C)c1ccc(Nc2c3ccc(NC(=O)CCN4CCCC4)cc3nc3cc(NC(=O)CCN4CCCC4)ccc23)cc1
Second compound 0.0316 µM
  IC50: > 0.316 µM
Second compound 0.1 µM
  IC50: > 0.316 µM
Second compound 0.316 µM
  IC50: > 0.316 µM
Second compound 1 µM
  IC50: > 0.316 µM
Second compound 3.16 µM
  IC50: > 0.316 µM
Second compound 10 µM
  IC50: > 0.316 µM
Second compound 0.0316 µM, first compound 0.000999 µM
  viability, T/C: 108%
Second compound 0.0316 µM, first compound 0.00316 µM
  viability, T/C: 102%
Second compound 0.0316 µM, first compound 0.00999 µM
  viability, T/C: 103%
[1]
  viability, T/C: 118%
Second compound 0.0316 µM, first compound 0.0999 µM
  viability, T/C: 104%
[2]
  viability, T/C: 91%
Second compound 0.1 µM, first compound 0.000999 µM
  viability, T/C: 92.8%
Second compound 0.1 µM, first compound 0.00316 µM
  viability, T/C: 103%
Second compound 0.1 µM, first compound 0.00999 µM
  viability, T/C: 95.2%
[3]
  viability, T/C: 107%
Second compound 0.1 µM, first compound 0.0999 µM
  viability, T/C: 115%
[4]
  viability, T/C: 90.5%
Second compound 0.316 µM, first compound 0.000999 µM
  viability, T/C: 105%
Second compound 0.316 µM, first compound 0.00316 µM
  viability, T/C: 113%
Second compound 0.316 µM, first compound 0.00999 µM
  viability, T/C: 88.5%
[5]
  viability, T/C: 88.3%
Second compound 0.316 µM, first compound 0.0999 µM
  viability, T/C: 104%
[6]
  viability, T/C: 101%
Second compound 1 µM, first compound 0.000999 µM
  viability, T/C: 99.3%
Second compound 1 µM, first compound 0.00316 µM
  viability, T/C: 101%
Second compound 1 µM, first compound 0.00999 µM
  viability, T/C: 93%
[7]
  viability, T/C: 89.7%
Second compound 1 µM, first compound 0.0999 µM
  viability, T/C: 108%
[8]
  viability, T/C: 87%
Second compound 3.16 µM, first compound 0.000999 µM
  viability, T/C: 90.6%
Second compound 3.16 µM, first compound 0.00316 µM
  viability, T/C: 87.3%
Second compound 3.16 µM, first compound 0.00999 µM
  viability, T/C: 97.8%
[9]
  viability, T/C: 86.2%
Second compound 3.16 µM, first compound 0.0999 µM
  viability, T/C: 102%
[10]
  viability, T/C: 82.2%
Second compound 10 µM, first compound 0.000999 µM
  viability, T/C: 88.5%
Second compound 10 µM, first compound 0.00316 µM
  viability, T/C: 85.7%
Second compound 10 µM, first compound 0.00999 µM
  viability, T/C: 94.7%
[11]
  viability, T/C: 79.7%
Second compound 10 µM, first compound 0.0999 µM
  viability, T/C: 77.3%
[12]
  viability, T/C: 97%

## COc1cc(C2c3cc4c(cc3C(OC3OC5COC(C)OC5C(O)C3O)C3COC(=O)C23)OCO4)cc(OC)c1O (centres undefined) + CN(C)c1ccc(Nc2c3ccc(NC(=O)CCN4CCCC4)cc3nc3cc(NC(=O)CCN4CCCC4)ccc23)cc1
Second compound 0.0316 µM
  IC50: > 10 µM
Second compound 0.1 µM
  IC50: > 10 µM
Second compound 0.316 µM
  IC50: > 10 µM
Second compound 1 µM
  IC50: > 10 µM
Second compound 3.16 µM
  IC50: > 10 µM
Second compound 10 µM
  IC50: > 10 µM
[1]
  viability, T/C: 94.2%
Second compound 0.0316 µM, first compound 0.1 µM
  viability, T/C: 94.2%
[2]
  viability, T/C: 86.6%
Second compound 0.0316 µM, first compound 1 µM
  viability, T/C: 117%
Second compound 0.0316 µM, first compound 3.16 µM
  viability, T/C: 86.7%
Second compound 0.0316 µM, first compound 10 µM
  viability, T/C: 68.2%
[3]
  viability, T/C: 105%
Second compound 0.1 µM, first compound 0.1 µM
  viability, T/C: 85.4%
[4]
  viability, T/C: 101%
Second compound 0.1 µM, first compound 1 µM
  viability, T/C: 86%
Second compound 0.1 µM, first compound 3.16 µM
  viability, T/C: 75%
Second compound 0.1 µM, first compound 10 µM
  viability, T/C: 67.6%
[5]
  viability, T/C: 108%
Second compound 0.316 µM, first compound 0.1 µM
  viability, T/C: 93%
[6]
  viability, T/C: 99%
Second compound 0.316 µM, first compound 1 µM
  viability, T/C: 95.6%
Second compound 0.316 µM, first compound 3.16 µM
  viability, T/C: 97.7%
Second compound 0.316 µM, first compound 10 µM
  viability, T/C: 66.4%
[7]
  viability, T/C: 97.4%
Second compound 1 µM, first compound 0.1 µM
  viability, T/C: 67.8%
[8]
  viability, T/C: 114%
Second compound 1 µM, first compound 1 µM
  viability, T/C: 105%
Second compound 1 µM, first compound 3.16 µM
  viability, T/C: 89.2%
Second compound 1 µM, first compound 10 µM
  viability, T/C: 60.8%
[9]
  viability, T/C: 94.7%
Second compound 3.16 µM, first compound 0.1 µM
  viability, T/C: 90%
[10]
  viability, T/C: 120%
Second compound 3.16 µM, first compound 1 µM
  viability, T/C: 106%
Second compound 3.16 µM, first compound 3.16 µM
  viability, T/C: 86%
Second compound 3.16 µM, first compound 10 µM
  viability, T/C: 66.8%
[11]
  viability, T/C: 90.3%
Second compound 10 µM, first compound 0.1 µM
  viability, T/C: 90.4%
[12]
  viability, T/C: 105%
Second compound 10 µM, first compound 1 µM
  viability, T/C: 105%
Second compound 10 µM, first compound 3.16 µM
  viability, T/C: 90.4%
Second compound 10 µM, first compound 10 µM
  viability, T/C: 64.3%
